According to publication PMC5362036, “Cohesive Properties of the Caulobacter crescentus Holdfast Adhesin Are Regulated by a Novel c-di-GMP Effector Protein” (mBio, 2017):

Experiments:
Assay type in all cases: binding
HfsK (CC3689) [1] = biological target: T1, HfsK (CC3689) (Caulobacter vibrioides, UniProt Q9A277, R240A); assay: UV cross-linking with […]c-di-GMP; conditions: StrepII-tagged, 1 uM protein; labelled compound
T1 construct: gene CC_3689; full length; His-tagged (ITC) or StrepII-tagged (mutants, UV cross-linking), expressed in E. coli; tags kept as far as told

HfsK (CC3689) [2] = biological target: T2, HfsK (CC3689) (Caulobacter vibrioides, UniProt Q9A277); assay: isothermal titration calorimetry
T2 construct: gene CC_3689; full length; His-tagged (ITC) or StrepII-tagged (mutants, UV cross-linking), expressed in E. coli; tags kept as far as told
Excerpt: isothermal titration calorimetry on HfsK (CC3689) | His-CC3689 bound c-di-GMP in a concentration-dependent manner with an equilibrium disassociation constant (Kd)

HfsK (CC3689) [3] = biological target: T3, HfsK (CC3689) (Caulobacter vibrioides, UniProt Q9A277, R151A); assay: UV cross-linking with […]c-di-GMP; conditions: StrepII-tagged, 1 uM protein; labelled compound
T3 construct: gene CC_3689; full length; His-tagged (ITC) or StrepII-tagged (mutants, UV cross-linking), expressed in E. coli; tags kept as far as told

HfsK (CC3689) [4] = biological target: T4, HfsK (CC3689) (Caulobacter vibrioides, UniProt Q9A277, R112A); assay: UV cross-linking with […]c-di-GMP; conditions: StrepII-tagged, 1 uM protein; labelled compound
T4 construct: gene CC_3689; full length; His-tagged (ITC) or StrepII-tagged (mutants, UV cross-linking), expressed in E. coli; tags kept as far as told

HfsK (CC3689) [5] = biological target: T5, HfsK (CC3689) (Caulobacter vibrioides, UniProt Q9A277, R102A); assay: UV cross-linking with […]c-di-GMP; conditions: StrepII-tagged, 1 uM protein; labelled compound
T5 construct: gene CC_3689; full length; His-tagged (ITC) or StrepII-tagged (mutants, UV cross-linking), expressed in E. coli; tags kept as far as told

HfsK (CC3689) [6] = biological target: T6, HfsK (CC3689) (Caulobacter vibrioides, UniProt Q9A277, R267A); assay: UV cross-linking with […]c-di-GMP; conditions: StrepII-tagged, 1 uM protein; labelled compound
T6 construct: gene CC_3689; full length; His-tagged (ITC) or StrepII-tagged (mutants, UV cross-linking), expressed in E. coli; tags kept as far as told
T6 sequence (Q9A277 entry or part of it R267A): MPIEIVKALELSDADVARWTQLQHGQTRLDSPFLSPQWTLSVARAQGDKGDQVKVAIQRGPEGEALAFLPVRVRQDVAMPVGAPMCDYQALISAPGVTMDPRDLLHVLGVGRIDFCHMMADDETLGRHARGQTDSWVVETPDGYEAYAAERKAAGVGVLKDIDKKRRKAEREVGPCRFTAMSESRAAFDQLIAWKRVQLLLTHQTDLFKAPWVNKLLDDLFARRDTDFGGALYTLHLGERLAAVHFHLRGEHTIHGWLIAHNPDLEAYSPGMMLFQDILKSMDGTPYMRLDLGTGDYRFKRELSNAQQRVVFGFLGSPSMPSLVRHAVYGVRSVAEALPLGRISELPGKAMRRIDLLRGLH

T5 sequence (Q9A277 entry or part of it R102A): as the sequence (Q9A277 entry or part of it R267A) above, with R102A, A267R counted along it
T3 sequence (Q9A277 entry or part of it R151A): as the sequence (Q9A277 entry or part of it R267A) above, with R151A, A267R counted along it
T4 sequence (Q9A277 entry or part of it R112A): as the sequence (Q9A277 entry or part of it R267A) above, with R112A, A267R counted along it
T2 sequence (Q9A277 entry or part of it): as the sequence (Q9A277 entry or part of it R267A) above, with A267R counted along it
T1 sequence (Q9A277 entry or part of it R240A): as the sequence (Q9A277 entry or part of it R267A) above, with R240A, A267R counted along it

Kd (HfsK (CC3689) [2]): 724 nM
SMILES: Nc1nc2c(ncn2[C@@H]2O[C@@H]3COP(=O)(O)O[C@H]4[C@@H](O)[C@H](n5cnc6c(=O)[nH]c(N)nc65)O[C@@H]4COP(=O)(O)O[C@H]3[C@H]2O)c(=O)[nH]1 [c-di-GMP]
UV cross-linking with [33P]c-di-GMP (HfsK (CC3689) [1]): residues of HfsK (R102, R112, R151, R240, and R267) were replaced with alanine
UV cross-linking with [33P]c-di-GMP (HfsK (CC3689) [3]): residues of HfsK (R102, R112, R151, R240, and R267) were replaced with alanine
UV cross-linking with [33P]c-di-GMP (HfsK (CC3689) [4]): HfsKR112a as the only mutant variant with reduced binding affinity for c-di-GMP
UV cross-linking with [33P]c-di-GMP (HfsK (CC3689) [5]): residues of HfsK (R102, R112, R151, R240, and R267) were replaced with alanine
UV cross-linking with [33P]c-di-GMP (HfsK (CC3689) [6]): residues of HfsK (R102, R112, R151, R240, and R267) were replaced with alanine
